Results as given in the Kinase Knowledgebase extract (Sharma et al. 2016).

Molecular target: MAPK14 (UniProt Q16539)
Experiment: p38 Inhibition Assay (in Vitro)

MAPK14, sequence (Q16539 whole entry, looked up): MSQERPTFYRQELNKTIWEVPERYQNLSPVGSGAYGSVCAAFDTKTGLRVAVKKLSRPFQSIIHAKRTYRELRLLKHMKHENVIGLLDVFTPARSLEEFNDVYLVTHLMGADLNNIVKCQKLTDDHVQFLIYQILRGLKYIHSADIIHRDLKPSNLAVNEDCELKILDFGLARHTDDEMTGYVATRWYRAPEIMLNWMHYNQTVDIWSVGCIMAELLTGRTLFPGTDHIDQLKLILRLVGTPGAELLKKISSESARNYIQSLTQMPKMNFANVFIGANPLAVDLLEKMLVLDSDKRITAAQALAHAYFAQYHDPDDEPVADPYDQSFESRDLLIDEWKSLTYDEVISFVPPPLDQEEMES

IC50 [µM] | SMILES
> 30 | O=C(NCc1ccc(S(=O)(=O)N2CCC(n3nnc4ccccc43)CC2)s1)c1ccccc1O
> 30 | O=C(NCc1ccc(S(=O)(=O)N2CCC(n3cnc4ccccc43)CC2)s1)c1ccc(Cl)cc1
> 30 | O=C(NCc1ccc(S(=O)(=O)N2CCN(C(=O)c3cccc4ccccc34)CC2)s1)c1ccc(Cl)cc1
> 30 | NS(=O)(=O)c1cccc(NC2CCN(S(=O)(=O)c3ccc(CNC(=O)c4ccc(Cl)cc4)s3)CC2)c1
> 30 | O=C(NCc1ccc(S(=O)(=O)N2CCC(Nc3ccccc3)CC2)s1)c1ccc(Cl)cc1
> 30 | O=C(NCc1ccc(S(=O)(=O)N2CCC(Nc3cccc(S(=O)(=O)CCO)c3)CC2)s1)c1ccc(Cl)cc1
> 30 | O=C(NCc1ccc(S(=O)(=O)N2CCC(n3nnc4ccccc43)CC2)s1)c1ccc(Cl)cc1
> 30 | O=C(NCc1ccc(S(=O)(=O)N2CCC(Nc3ccc(Cl)cc3)CC2)s1)c1ccc(Cl)cc1
> 30 | O=C(NCc1ccc(S(=O)(=O)N2CCCN(C(=O)Cc3ccccc3)CC2)s1)c1ccc(Cl)cc1
> 30 | COc1cccc(C(=O)NCc2ccc(S(=O)(=O)N3CCC(Nc4ccccc4[N+](=O)[O-])CC3)s2)c1
> 30 | CCCc1cccc(NC2CCN(S(=O)(=O)c3ccc(CNC(=O)c4ccc(Cl)cc4)s3)CC2)c1
> 30 | O=C(NCc1ccc(S(=O)(=O)N2CCC(C(=O)c3ccc(F)cc3F)CC2)s1)c1ccc(Cl)cc1
> 30 | COC(=O)c1cccc(NC2CCN(S(=O)(=O)c3ccc(CNC(=O)c4ccc([N+](=O)[O-])cc4)s3)CC2)c1
> 30 | COc1cccc(NC2CCN(S(=O)(=O)c3ccc(CNC(=O)c4ccc([N+](=O)[O-])cc4)s3)CC2)c1
